Here are results for 8 compounds from patent US4407795A, “Inclusion compound of p-hexadecylamino benzoic acid in cyclodextrin and method of use” (American Cyanamid Company, priority 1981, dated 1983).

For data set [1] the following is noted: in vivo; cited from earlier work.
The conditions of data set [2]: rat; cited from earlier work.
A short description of another data set: Serum lipoproteins. Type of data set: in vivo.
Data set [3] is described as follows: Effects on arterial wall / atherosclerotic plaque. Type of data set: in vivo.
Data set [4] in a line: Luminal narrowing and myocardial blood flow. Format: in vivo.
Data set [5] has as its system fatty acyl-CoA: cholesterol acyl transferase (ACAT). Briefly: Inhibition of arterial cholesterol-esterifying enzyme. Type of data set: biochemical. The settings on record: in words.
For data set [6] the following is noted: cited from earlier work.
For data set [7] the following is noted: mainly as glucose formed by enzymatic hydrolysis; cited from earlier work.
For data set [8] the following is noted: in words; cited from earlier work.

“Also recorded” adds a separate entry of the source.

Regarding `N[C@H](Cc1cc(I)c(Oc2cc(I)c(O)c(I)c2)c(I)c1)C(=O)O` [D-thyroxine], the lowering blood lipids entry in data set [1] was “effective to varying degrees in lowering blood lipids”.
Turning to `COc1ccc2c(c1)c(CC(=O)O)c(C)n2C(=O)c1ccc(Cl)cc1` [Indomethacin], the “bioavailability with β-cyclodextrin” value in data set [2] was “enhance the bioavailability”.
With `CCOC(=O)C(C)(C)Oc1ccc(Cl)cc1` [clofibrate], the lowering blood lipids result in data set [1] is “effective to varying degrees in lowering blood lipids”.
For the compound `O=C(O)c1cccnc1` [nicotinic acid], the lowering blood lipids entry in data set [1] was “effective to varying degrees in lowering blood lipids”.
On to `CCCCCCCCCCCCCCCCNc1ccc(C(=O)[O-])cc1.[Na+]` [p-hexadecylamino benzoic acid sodium salt], for which the “high-density lipoprotein in the serum, increase” value in “Serum lipoproteins” (in vivo) was 2 fold. Moreover, in the data set “Serum lipoproteins” (in words), the HDL concentrations entry is reported as “elevates HDL concentrations” and the very low-density lipoproteins entry was “antiatherogenic decrease in the atherogenic very low-density lipoproteins”. Besides, in data set [3] (arterial wall), the “area and thickness of the plaque (incidence and severity of plaque formation)” value is “decrease of both the area and the thickness of the plaque”; the “deposition of collagen and elastin” value is “reduction of deposition of connective-tissue collagen and elastic-fiber elastin”; the “formation of the extracellular matrix and trapping of very low-density lipoproteins” value is “lowering of the formation of the extracellular matrix and its trapping of very low-density lipoproteins”; the “immobilization of cholesterol in the form of ester” value was “decreased immobilization of cholesterol in the form of ester”. Further, the smooth-muscle cell proliferation result in data set [3] (arterial wall) is “decreased smooth-muscle cell proliferation”. Also, the calcium deposition result in data set [3] (arterial wall / plaque, sodium salt) is given as “reduced calcium deposition; also recorded: minimizes the calcium deposition in the plaque”. Moreover, the progression of atherosclerosis result in [3] (in words) is on record as “inhibit the progression of atherosclerosis”. The “reduction in the luminal narrowing” value in data set [4] (4 major coronary arteries) came out at 2 fold. In addition, in data set [4] (major peripheral arteries), the “luminal narrowing in major peripheral arteries” value was “Reductions in luminal narrowing are seen in major peripheral arteries as well”. Besides, the myocardial blood flow entry in data set [4] (non-stressed and stressed heart) was “increases in myocardial blood flow in the non-stressed and the stressed heart”. In data set [5], the “inhibition of arterial cholesterol-esterifying enzyme (ACAT)” value was “inhibited by this compound”.
For the compound `O=C(O)c1ccccc1O` [salicylic acid], the “bioavailability in man as β-cyclodextrin inclusion compound” value in [6] was “increased bioavailability”.
Consider `CCCCCCCCCCCCCCCCCC(=O)O` [stearic acid], for which, in data set [2], the “bioavailability with β-cyclodextrin” value was “enhance the bioavailability”.
As for `OC[C@H]1O[C@@H]2O[C@H]3[C@H](O)[C@@H](O)[C@@H](O[C@H]4[C@H](O)[C@@H](O)[C@@H](O[C@H]5[C@H](O)[C@@H](O)[C@@H](O[C@H]6[C@H](O)[C@@H](O)[C@@H](O[C@H]7[C@H](O)[C@@H](O)[C@@H](O[C@H]8[C@H](O)[C@@H](O)[C@@H](O[C@H]1[C@H](O)[C@H]2O)O[C@@H]8CO)O[C@@H]7CO)O[C@@H]6CO)O[C@@H]5CO)O[C@@H]4CO)O[C@@H]3CO` [β-cyclodextrin], the “absorbed by man upon oral administration” value in [7] is listed as “less than 0.01%”. Also, in data set [8], the toxicity entry is on record as “lack of toxicity”.
